Data published in patent publication EP1094724B1, “USE OF A PHENOL OXIDISING ENZYME IN THE TREATMENT OF TOBACCO” (priority 1998, dated 2000).

Legend:
[1] = target: T1, Trametes villosa laccase (TvL) (Trametes villosa, UniProt Q99044); assay: Laccase TvL treatment of tobacco extract, HPLC analysis of phenolic compounds (peak area); format: biochemical; conditions: for % Remaining (peak area) after various treatment times: intensive, submerse aeration; for % Remaining (peak area) after 75 minutes / % Remaining (peak area) after 240 minutes: 1.6 µg/ml TvL, ambient temperature (approximately 20°C); for % Remaining (peak area) after 75 minutes / % Remaining (peak area) after 240 minutes / reduction in the area of the peaks (HPLC) following enzyme treatment: surface aeration; for reduction in the area of the peaks (HPLC) following enzyme treatment: tobacco extract, approximately 1.6 µg/ml TvL, pH 5.5 and 55°C
T1 construct: purchased Novo Nordisk A/S
T1 sequence (Q99044 22-520): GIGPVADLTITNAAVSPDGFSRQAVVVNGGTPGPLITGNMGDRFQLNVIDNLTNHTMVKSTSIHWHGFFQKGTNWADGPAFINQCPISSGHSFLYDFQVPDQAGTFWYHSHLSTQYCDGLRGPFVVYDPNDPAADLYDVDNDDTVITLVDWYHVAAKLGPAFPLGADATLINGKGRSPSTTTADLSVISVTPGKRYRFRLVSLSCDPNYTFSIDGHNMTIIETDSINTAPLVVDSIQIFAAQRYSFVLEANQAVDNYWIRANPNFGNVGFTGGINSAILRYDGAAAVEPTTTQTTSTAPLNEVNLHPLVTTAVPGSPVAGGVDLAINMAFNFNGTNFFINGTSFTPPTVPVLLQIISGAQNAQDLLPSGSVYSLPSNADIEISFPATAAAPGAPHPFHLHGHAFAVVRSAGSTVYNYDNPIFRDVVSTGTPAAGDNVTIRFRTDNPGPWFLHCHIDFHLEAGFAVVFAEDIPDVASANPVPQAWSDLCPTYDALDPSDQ
Protocol: The content of phenolic compounds is analysed by HPLC according to the procedure described below: • Liquid chromatographic system: E.g. Shimadzu SCL-6B System Controller, and two LC-6A Liquid Chromatograph (pumps) or Waters model 600 E • Injector: Shimadzu SIL 6B Autoinjector or Waters 715 Ultra Wisp. UV detector: Shimadzu SPD-6A Photodiode Array UV-VIS detector or Waters Model 481 • Software: CLASS LC10 / CLASS-MXA or Maxima 820 • Column: Supelcosil™ LC-18 25 cm x 4.6 mm (Supelco, #5-8298) or µ Bondapack C198 stainless steel column, 30 cm x 4 mm i.d., 10 µm particle size. • Guard column: none or Guard-Pak from Waters packed with the same material. • Temperature: Ambient • Mobile phase flow: 1.3 ml/min • Injection volume: 20µl • Wavelength: 350 nm • Eluent: Binary gradient (linear) mixture of A: KH2PO4 (28.4 g in 2000 ml de-mineralised water) and B: methanol (please see table 1 and figure 1). The eluent is filtered through a 0.45 µm filter and degassed before use.
Prior to HPLC analysis, the samples were filtered through a 0.45 µm filter or smaller, e.g. a sterile Sartorius Minisart 0.45 µm filter (#16555) or a Millipore Millex-GS 0.22 µm (#SBGS 0 25 SB) to remove the haze/precipitate normally formed during enzyme treatment. Normally, no dilution of the extract/sample was made before HPLC analysis.
For qualitative and semi-quantitative measurements, each of the standards was dissolved in 96% ethanol, and then mixed in a ratio and at a concentration which was within the range in the tobacco extract. For semi-quantification of the phenolic compounds in the tobacco extract, and as a measure of development in concentration of the various compounds contained in the extract, decrease in peak area relative to the peak area before addition of enzyme was used. As a measure of overall efficiency of the process, degree of reduction in total peak area of all peaks (not only the major ones) in the HPLC chromatogram with retention time Rt>3 min was used (named: "All peaks").
Unless otherwise indicated, the tobacco was extracted at a laboratory scale with water according to the following procedure: 1000 ml demineralised water is heated to 45°C. 30 g tobacco (approx. 25 g d.m.) is added and the mixture stirred by a magnetic bar and occasionally with a stick. After 15 minutes the tobacco residue is separated from the tobacco extract by vacuum filtration (Whatman glass micro fibre GF/F 11 cm). The filtered extract is then vacuum filtered at least once more or until it is completely clear. Yield was around 900 ml tobacco extract. […] No buffer was thus included in any of the trials. D.m. content of the extract was approximately 2.1%.
Tobacco extract (typically 50-100 ml) was poured into a glass beaker and a magnetic bar was added. No pH adjustments were made, and no buffer was added. The tobacco extract was heated to and controlled at 55°C during the entire enzyme treatment by means of a heating plate and a thermostat. Intensive submerse aeration was applied by blowing atmospheric air into the extract by means of a metal sinter (metal suction filter normally used for HPLC). The enzyme in question (TvL or PpL) was added to the desired concentration. Shortly after addition of laccase, the colour of the tobacco extract turned dark brown to black, and with time the liquor became turbid and a precipitate formed. The liquor was sampled with intervals for HPLC analysis.
Enzyme treatment: Surface aeration was used. TvL enzyme was added to the tobacco extract to a concentration of approximately 1.6 µg/ml. […] HPLC chromatograms of the tobacco extract before, during, and after enzyme treatment as well as chromatograms of the mixture of HPLC standards are shown in figure 6, 7, ,8, and 9.
Enzyme treatment: pH of the extract was adjusted with H2SO4 or NaOH to pH 4, pH 5, pH 6, or pH 7. The extract was kept at ambient temperature (approximately 20°C) during the entire enzyme treatment. Surface aeration was used. […]

[2] = target: T2, laccase derived from Trametes villosa, TvL (Trametes villosa, UniProt Q99044); assay: Effect of laccase on tobacco constituents, UV/Vis spectra before and after treatment (Example 1); format: biochemical; conditions: 9 mM Na-acetate buffer pH 5.0; 4.8% Ethanol; 0.025 mg/ml of tobacco constituent; 0.016 mg/ml laccase; spectra 190-700 nm every 20 seconds for 5 minutes
T2 construct: purchased Novo Nordisk A/S
T2 sequence (Q99044 22-520): T1 sequence (Q99044 22-520)
Protocol: Tobacco constituents: Nicotine, Chlorogenic acid, Rutin and Scopoletin. Enzyme: Purified laccase derived from Trametes villosa, TvL. Apparatus: HP8452 UV/Vis diode array spectrophotometer, 1 cm quarts cuvette. Buffer: Sodium acetate (Merck)
10 mM acetate buffer was prepared from sodium acetate adjusted to pH 5.0 with sulphuric acid. Stock solution of 0.50 mg/ml in 96% ethanol was prepared of nicotine, chlorogenic acid, rutin, and scopoletin. A stock solution of 0.31 mg enzyme protein/ml of laccase in de-mineralised water was prepared. The HP diode array spectrophotometer was operated as per the manufacturer's instructions. A 1 cm quartz cuvette was used. As a blank was used 950µl buffer mixed with 50µl 96% ethanol. In a 1 cm quart cuvette was mixed 900µl 10 mM acetate buffer and 50µl of the stock solution of the compound in question. A spectrum of the "native" compound was recorded in the range 190-700 nm. 50µl of TvL stock solution was added and carefully mixed, and spectra in the range 190-700 nm were recorded every 20 seconds for 5 minutes.

[3] = 40 Min, approximately 1.6 µg/ml TvL at 55°C and pH 5.4
[4] = 40 Min, approximately 7.8µg/ml TvL at 55°C and pH 5.4
[5] = 80 Min, approximately 1.6 µg/ml TvL at 55°C and pH 5.4
[6] = 120 Min, approximately 1.6 µg/ml TvL at 55°C and pH 5.4

Row | Compound | % Remaining (peak area) after various treatment times [1, 3] [%] | % Remaining (peak area) after various treatment times [1, 4] [%] | % Remaining (peak area) after various treatment times [1, 5] [%] | % Remaining (peak area) after various treatment times [1, 6] [%] | % Remaining (peak area) after 75 minutes ([1]; pH 4) [%] | % Remaining (peak area) after 240 minutes ([1]; pH 4) [%] | % Remaining (peak area) after 75 minutes ([1]; pH 5) [%] | % Remaining (peak area) after 240 minutes ([1]; pH 5) [%] | % Remaining (peak area) after 75 minutes ([1]; pH 6) [%] | % Remaining (peak area) after 240 minutes ([1]; pH 6) [%] | % Remaining (peak area) after 75 minutes ([1]; pH 7) [%] | % Remaining (peak area) after 240 minutes ([1]; pH 7) [%] | reduction in the area of the peaks (HPLC) following enzyme treatment [1] | spectral changes (peak position and peak relative height) [2]
1 | O=C(C=Cc1ccc(O)c(O)c1)OC1CC(O)(C(=O)O)CC(O)C1O (stereo not drawn) [CA, 3-[[3-(3,4-Dihydroxyphenyl)-1-oxo-2-propenyl]oxy]1,4,5-trihydroxycyclohexanecarboxylic acid] | 23 | 0 | 0 | 0 | 5 | 0 | 11 | 0 | 22 | 0 | 94 | 85 | significant reduction | –
2 | COc1cc2ccc(=O)oc2cc1O [S, 7-Hydroxy-6-methoxy-2H-1-benzopyran-2-one] | 82 | 3 | 30 | 12 | 89 | 58 | 94 | 12 | 96 | 6 | 100 | 112 | significant reduction | significant spectral changes
